Laboratory results taken from patent US9579317B2, “Peptide-drug conjugates” (JiaRui Biopharmaceuticals, Ltd., priority 2014, dated 2017).
pIC50: −log10 of the molar value.

Legend:
[1] = test system: CT-26 syngenic colon cancer model; assay: In vivo antitumor activity, subcutaneous CT-26 syngenic colon cancer model; set-up: species or system Balb/c mice; conditions: QW, intravenous, three injections
Description: The tumoricidal effect of peptide-drug conjugate N^α-succinamic acid-Ala-Ala-Asn-PABC-mitomycin [8] was evaluated on subcutaneous CT-26 syngenic colon cancer model in Balb/c mice. Each mouse was inoculated subcutaneously at the right flank region with CT-26 tumor cells (5×10^5) in 0.1 mL of PBS.

Balb/c mice = assay: In vivo maximum tolerated dose (MTD) in Balb/c mice; set-up: mortality: dose or concentration left out as unconfirmed
HepG2 = assay: cells; assay type: cell-based, human; conditions: 72 hours, n = 3, mean
Description: (§1) Monolayer cultures of human carcinoma cells were harvested using trypsin-EDTA, and the cells counted and resuspended to 1×10^5/mL in RPMI-1640 or DMEM containing 10% FBS. Cells (0.1 mL/well) were added to each well of 96 well microtiter plates and incubated overnight at 37° C. in a humidified atmosphere of 5% CO2. […] All dilutions were performed in triplicate. The drug treated cells were incubated for another 72 hours at 37° C. in a humidified atmosphere of 5% CO2. 50 μL of cold TCA (50%, wt/vol) was added to each well and incubated the plates at 4° C. for 1 hour. The plates were washed with slow-running tap water for three times and the dried at room temperature. 50 μL of Sulforhodamine B solution (0.4%, wt/vol) was added to each well and the plates were left at room temperature for 1 hour. The plates were rinsed with acetic acid solution (1%, vol/vol) to remove the unbound dye and dried at room temperature. 200 μL of 10 mM Tris base solution was added to each well and the plates were shaken on a gyratory shaker for 15 minutes to solubilize the protein-bound dye. Well optical density at 510 nm was measured in a microplate reader, and the IC50 was calculated by GraphPad from three separated experiments with triplicate in each experiment and expressed as mean (Table 1).

HCT116 = assay: cells; assay type: cell-based, human; conditions: 72 hours, n = 3, mean
Description: as §1

Human plasma stability = assay: Human plasma stability
Description: 100 μL aliquots were removed at the time points of 0, 0.25, 0.5, 1, 2, 4, 6 hours and diluted with 400 μL cold acetonitrile containing tolbutamide (200 ng/mL) as internal standard. The samples were centrifuged at 14,000 rpm for 4 minutes. 100 μL of above supernatants were diluted with 300 μL of 0.1% formic acid HPLC water and 10 μL was taken for LC/MS/MS analysis (column: C-18; mobile phase: 0.1% formic acid in water/0.1% formic acid in acetonitrile; ion transition: Q1 ion (m/z)=840.5, Q2 ion (m/z)=462.2).

[2] = 25, 50 and 100 mg/kg, once per week, three injections total for 24 days

| Compound | tumor growth T/C versus untreated control ([1]; 50 mg/kg, p<0.01) [%] | appearance (Balb/c mice; [2]) | body weight (loss) (Balb/c mice; [2]) [%] | increase of mice maximum tolerated dose (MTD) as compared with parent drug mitomycin (Balb/c mice; Balb/c mice) | pIC50 (HepG2) | pIC50 (HCT116) | free drug mitomycin detected (Human plasma stability; human plasma incubation, 10 μM, 37° C.) | half-life at 10 μM (Human plasma stability; human, plasma) [h] | tumor growth T/C ([1]; 5 mg/kg (MTD dose)) [%] | mortality (Balb/c mice) | pIC50 (HepG2; Homo sapiens, HepG2) | pIC50 (HCT116; Homo sapiens, HCT-116) |
| --- | --- | --- | --- | --- | --- | --- | --- | --- | --- | --- | --- | --- |
| CO[C@@]12[C@H](COC(N)=O)C3=C(C(=O)C(C)=C(N)C3=O)N1C[C@H]1[C@@H]2N1C(=O)OCc1ccc(NC(=O)[C@H](CC(N)=O)NC(=O)[C@H](C)NC(=O)[C@H](C)NC(=O)CCC(=O)O)cc1 [compound 8, N^α-succinamic acid-Ala-Ala-Asn-PABC-mitomycin] | 36.4 | no abnormal appearance | < 10 | at least 20 fold | 5.61 | 5.18 | Less than 2% | > 15 | – | – | – | – |
| CO[C@@]12[C@H](COC(N)=O)C3=C(C(=O)C(C)=C(N)C3=O)N1C[C@@H]1N[C@@H]12 [mitomycin, reference compound] | – | – | – | – | – | – | – | – | 50.4 | animal death was observed | 6.84 | 6.94 |
